Series [1] is described as follows: Plasma concentration-time profile of RTV and metabolites. Format: in vivo. The settings on record: human, 400 mg bid.
The target of series [2] is T1, CYP2J2 (Homo sapiens, UniProt P51589).
T1 sequence (P51589 1-502): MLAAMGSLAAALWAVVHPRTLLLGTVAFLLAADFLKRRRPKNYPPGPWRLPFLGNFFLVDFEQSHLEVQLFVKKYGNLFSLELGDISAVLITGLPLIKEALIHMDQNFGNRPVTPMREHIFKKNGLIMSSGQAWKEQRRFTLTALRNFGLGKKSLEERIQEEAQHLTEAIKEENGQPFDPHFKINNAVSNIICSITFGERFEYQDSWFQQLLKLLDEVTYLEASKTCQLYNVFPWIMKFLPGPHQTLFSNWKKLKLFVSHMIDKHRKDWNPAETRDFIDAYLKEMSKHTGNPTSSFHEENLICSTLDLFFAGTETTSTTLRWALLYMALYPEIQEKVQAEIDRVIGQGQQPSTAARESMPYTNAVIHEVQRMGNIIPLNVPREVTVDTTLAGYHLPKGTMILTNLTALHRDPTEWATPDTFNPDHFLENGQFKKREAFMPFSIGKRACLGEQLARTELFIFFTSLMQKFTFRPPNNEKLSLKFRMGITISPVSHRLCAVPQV
The following applies: CYP2J2, linear scaled according to kinact/KI (SCHH approach).

The target of the next series is CYP2D6 (Homo sapiens, UniProt P10635). The settings on record: CYP2D6, R2 formation; ref [6], [34]; cited from earlier work.
CYP2D6, sequence (P10635 whole entry): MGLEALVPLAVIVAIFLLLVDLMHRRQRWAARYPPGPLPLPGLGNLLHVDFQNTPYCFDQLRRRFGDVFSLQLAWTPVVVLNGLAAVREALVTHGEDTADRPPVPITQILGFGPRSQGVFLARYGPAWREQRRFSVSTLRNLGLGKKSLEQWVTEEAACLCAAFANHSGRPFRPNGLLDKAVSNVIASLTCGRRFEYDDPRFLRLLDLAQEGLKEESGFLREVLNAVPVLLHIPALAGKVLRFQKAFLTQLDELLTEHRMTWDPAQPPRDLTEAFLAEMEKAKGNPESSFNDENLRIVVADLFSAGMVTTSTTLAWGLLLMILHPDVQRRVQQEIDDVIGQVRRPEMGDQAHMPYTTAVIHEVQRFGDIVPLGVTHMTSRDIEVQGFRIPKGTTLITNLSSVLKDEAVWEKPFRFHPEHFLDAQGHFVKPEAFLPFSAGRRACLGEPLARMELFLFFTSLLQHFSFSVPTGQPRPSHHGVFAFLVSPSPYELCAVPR
The subject of a further series is CYP3A4. The following applies: ref [27] [11]; cited from earlier work.
The target in series [3] is T1, CYP2J2. Nature of the series: in vitro. The settings on record: recombinant enzyme.
The test system of series [4] is CYP2J2. The following applies: projected; ref [14]; cited from earlier work.

The source of these data is paper PMC4169885 (Biochemical pharmacology, 2014).

Structures are written as SMILES.

For orientation: Cmax means the highest concentration seen after dosing. As usually defined, the Km is the concentration of substrate that gives half-maximal velocity. As usually defined, the inhibition is how much of the control response was suppressed.

Consider `CC(C)c1nc(CN(C)C(=O)N[C@H](C(=O)N[C@@H](Cc2ccccc2)C[C@H](O)[C@H](Cc2ccccc2)NC(=O)OCc2cncs2)C(C)C)cs1` [RTV, Ritonavir], for which the Cmax in series [1] was found to be 4.8 µM. Also, the “slope at 1 μM” value is 0.0044 ^4 μM min^-1 on CYP2J2 [2] and 0.17 ^2 μM min^-1 with CYP3A4. Besides, the Km on CYP2D6 is 1.6 µM.
`C#C[C@]1(O)CC[C@H]2[C@@H]3CCC4=Cc5oncc5C[C@]4(C)[C@H]3CC[C@@]21C` [danazol]: the inhibition at 5 min on CYP2J2 [3] was determined as 95%.
Take `CC(C)(C)c1ccc(C(=O)CCCN2CCC(OC(c3ccccc3)c3ccccc3)CC2)cc1` [ebastine]: the “contribution of CYP2J2 to intestinal ebastine hydroxylation” value with CYP2J2 [4] is no more than 70%.
